This assay concerns the target LRRK2 G2019S (Homo sapiens, UniProt Q5S007, G2019S). Nature of the assay: LRRK2 G2019S Km ATP LanthaScreen assay. As to conditions: read-out: LRRK2 pIC50 (converted). It counts as biochemical. As to the method: Unless otherwise noted, all reactions are magnetically stirred. Unless otherwise noted, when diethyl ether is used in the experiments described below, it is Fisher ACS certified material and is stabilized with BHT. Unless otherwise noted, “concentrated” and/or “solvent removed under reduced pressure” means evaporating the solvent from a solution or mixture using a rotary evaporator or vacuum pump. Unless otherwise noted, flash chromatography is carried out on a Teledyne Isco (Lincoln, NE), Analogix (Burlington, WI), or Biotage (Stockholm, SWE) automated chromatography system using a commercially available cartridge as the column. Columns may be purchased from Teledyne Isco, Analogix, Biotage, Varian (Palo Alto, CA), or Supelco (Bellefonte, PA) and are usually filled with silica gel as the stationary phase. Reverse phase prep-HPLC conditions, where used, can be found at the end of each experimental section. Aqueous solutions were concentrated on a Genevac (Ipswich, ENG) or by freeze-drying/lyophilization.

Sequence of LRRK2 G2019S (Q5S007 whole entry G2019S): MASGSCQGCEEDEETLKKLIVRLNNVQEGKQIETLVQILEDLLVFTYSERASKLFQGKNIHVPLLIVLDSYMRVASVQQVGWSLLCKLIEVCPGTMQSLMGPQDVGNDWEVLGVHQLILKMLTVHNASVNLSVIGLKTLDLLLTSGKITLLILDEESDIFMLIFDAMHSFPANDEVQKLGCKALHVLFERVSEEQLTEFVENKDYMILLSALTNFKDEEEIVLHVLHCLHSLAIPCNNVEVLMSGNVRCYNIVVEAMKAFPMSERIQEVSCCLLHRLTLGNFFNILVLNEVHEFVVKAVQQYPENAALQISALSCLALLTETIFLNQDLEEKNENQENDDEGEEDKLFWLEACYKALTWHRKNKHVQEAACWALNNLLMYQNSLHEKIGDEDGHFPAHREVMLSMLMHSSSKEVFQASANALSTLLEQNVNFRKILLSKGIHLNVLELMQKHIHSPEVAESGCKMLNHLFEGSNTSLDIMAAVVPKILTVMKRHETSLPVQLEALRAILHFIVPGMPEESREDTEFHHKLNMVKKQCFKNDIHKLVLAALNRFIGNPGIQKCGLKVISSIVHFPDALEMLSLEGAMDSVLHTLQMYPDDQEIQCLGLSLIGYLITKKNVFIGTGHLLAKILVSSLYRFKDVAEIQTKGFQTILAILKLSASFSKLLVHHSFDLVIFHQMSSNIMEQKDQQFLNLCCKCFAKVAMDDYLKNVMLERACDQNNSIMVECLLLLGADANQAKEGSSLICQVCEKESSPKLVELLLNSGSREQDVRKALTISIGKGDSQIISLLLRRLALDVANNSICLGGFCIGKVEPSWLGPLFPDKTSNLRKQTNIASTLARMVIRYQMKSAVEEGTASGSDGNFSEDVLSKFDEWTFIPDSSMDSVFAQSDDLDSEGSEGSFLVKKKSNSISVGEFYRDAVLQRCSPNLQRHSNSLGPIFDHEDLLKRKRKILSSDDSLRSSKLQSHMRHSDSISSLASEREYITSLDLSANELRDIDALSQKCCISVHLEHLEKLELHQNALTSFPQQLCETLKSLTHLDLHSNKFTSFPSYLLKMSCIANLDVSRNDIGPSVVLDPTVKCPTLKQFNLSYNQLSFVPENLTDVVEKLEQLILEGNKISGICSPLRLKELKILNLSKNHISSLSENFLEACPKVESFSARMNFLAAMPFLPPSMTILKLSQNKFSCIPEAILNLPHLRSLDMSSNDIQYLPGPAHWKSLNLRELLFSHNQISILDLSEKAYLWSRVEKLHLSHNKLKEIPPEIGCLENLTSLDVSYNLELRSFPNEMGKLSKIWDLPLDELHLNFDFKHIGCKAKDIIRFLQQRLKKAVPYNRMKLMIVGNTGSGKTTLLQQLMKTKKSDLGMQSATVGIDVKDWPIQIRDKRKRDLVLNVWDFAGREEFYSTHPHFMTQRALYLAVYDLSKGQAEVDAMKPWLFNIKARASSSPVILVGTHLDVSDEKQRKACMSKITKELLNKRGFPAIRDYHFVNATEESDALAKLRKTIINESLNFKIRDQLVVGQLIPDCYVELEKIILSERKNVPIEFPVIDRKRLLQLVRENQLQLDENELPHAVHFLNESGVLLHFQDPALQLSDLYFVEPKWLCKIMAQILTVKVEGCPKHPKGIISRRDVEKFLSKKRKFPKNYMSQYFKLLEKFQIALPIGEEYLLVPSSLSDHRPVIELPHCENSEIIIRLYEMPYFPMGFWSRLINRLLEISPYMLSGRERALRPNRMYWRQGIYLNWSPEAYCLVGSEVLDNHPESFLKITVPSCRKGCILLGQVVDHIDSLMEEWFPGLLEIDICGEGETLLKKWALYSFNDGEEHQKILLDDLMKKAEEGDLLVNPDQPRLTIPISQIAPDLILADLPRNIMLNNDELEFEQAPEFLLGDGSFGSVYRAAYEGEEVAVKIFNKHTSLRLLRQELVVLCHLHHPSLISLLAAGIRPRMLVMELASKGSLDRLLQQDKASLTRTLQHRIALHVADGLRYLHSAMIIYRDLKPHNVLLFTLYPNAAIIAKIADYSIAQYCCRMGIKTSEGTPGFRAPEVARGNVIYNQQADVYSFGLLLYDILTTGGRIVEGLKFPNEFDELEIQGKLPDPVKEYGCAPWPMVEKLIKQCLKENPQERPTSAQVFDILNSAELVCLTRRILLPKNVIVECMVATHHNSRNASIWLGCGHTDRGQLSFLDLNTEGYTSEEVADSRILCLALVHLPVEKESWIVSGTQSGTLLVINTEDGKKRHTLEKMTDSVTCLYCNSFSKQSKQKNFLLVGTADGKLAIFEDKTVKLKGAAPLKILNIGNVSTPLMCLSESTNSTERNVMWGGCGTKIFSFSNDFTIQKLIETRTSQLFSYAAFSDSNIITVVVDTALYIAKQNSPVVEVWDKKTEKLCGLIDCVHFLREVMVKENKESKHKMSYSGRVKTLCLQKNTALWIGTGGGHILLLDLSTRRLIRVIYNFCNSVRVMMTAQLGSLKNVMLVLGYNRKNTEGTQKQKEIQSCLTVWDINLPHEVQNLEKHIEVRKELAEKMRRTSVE

In the case of `Cc1nc(C(=O)Nc2cc3cc(C4CCN(C5COC5)CC4)c(Cl)cc3cn2)co1` [Ex-1.37, N-(7-chloro-6-(1-(oxetan-3-yl)piperidin-4-yl)isoquinolin-3-yl)-2-methyloxazole-4-carboxamide], the IC50 was 12.6 nM.

On to `Cc1cc2cnc(NC(=O)C3CC3c3ccccn3)cc2cc1C1CCN(C2(C)COCC2F)CC1` (single isomer, unassigned) [Ex-13.4, (1R,2R or 1S,2S)-N-(6-(1-((3R,4R or 3S,4S)-4-fluoro-3-methyltetrahydrofuran-3-yl)piperidin-4-yl)-7-methylisoquinolin-3-yl)-2-(pyridin-2-yl)cyclopropane-1-carboxamide], for which the IC50 is 21.9 nM.

As for `CC1(N2CCC(c3cc4cc(NC(=O)C5CCC(C(F)(F)F)OC5)ncc4cc3Cl)CC2)COCC1O` (centres unmarked) [Ex-2.59], the IC50 is 5.13 nM.

Consider `N#CC1(c2ccc3cnc(NC(=O)C4CC45CC5)cc3c2)CC12CC2` (single isomer, unassigned) [Ex-2.1], for which the IC50 was 0.871 nM.

Consider `Cn1cc(C(=O)Nc2cc3cc(C4CCN([C@]5(C)COC[C@@H]5O)CC4)c(Cl)cc3cn2)cn1` (single isomer, unassigned) [Ex-12.9, N-(7-chloro-6-(1-(4-hydroxy-3-methyltetrahydrofuran-3-yl)piperidin-4-yl)isoquinolin-3-yl)-1-methyl-1H-pyrazole-4-carboxamide], for which the IC50 was 141 nM.

Turning to `CC1OCCC1N1CCC(c2cc3cc(NC(=O)C4CC4)ncc3cc2Cl)CC1` (single isomer, unassigned) [Ex-9.9, N-(7-chloro-6-(1-(2-methyltetrahydrofuran-3-yl)piperidin-4-yl)isoquinolin-3-yl)cyclopropanecarboxamide], the IC50 was 5.62 nM.

Consider `CCC(=O)N1CC(C(=O)Nc2cc3cc(C4(C#N)CC45CC5)ccc3cn2)C1` (single isomer, unassigned) [Ex-19.1, (R or S)-N-(6-(1-cyanospiro[2.2]pentan-1-yl)isoquinolin-3-yl)-1-propionylazetidine-3-carboxamide], for which the IC50 was 10.7 nM.

For the molecule `CC(C(=O)Nc1cc2cc(C3(C#N)CC34CC4)ccc2cn1)c1cnn(C)c1` (centres unmarked) [Ex-2.108], the IC50 was 2.95 nM.

Take `CC1C(C(=O)Nc2cc3cc(C4CCN(C5(C)COCC5O)CC4)c(Cl)cc3cn2)C12CCOCC2` (single isomer, unassigned) [Ex-10.7, N-(7-chloro-6-(1-(4-hydroxy-3-methyltetrahydrofuran-3-yl)piperidin-4-yl)isoquinolin-3-yl)-2-methyl-6-oxaspiro[2.5]octane-1-carboxamide]: the IC50 was 44.7 nM.

Regarding `Cn1cc(C2CC2C(=O)Nc2cc3cc(C4(C#N)CC45CC5)ccc3cn2)cn1` (single isomer, unassigned) [Ex-1.23, (1R,2R or 1S,2S)-N-(6-((R or S)-1-cyanospiro[2.2]pentan-1-yl)isoquinolin-3-yl)-2-(1-methyl-1H-pyrazol-4-yl)cyclopropane-1-carboxamide], the IC50 was 1.58 nM.

Consider `CC1CC1C(=O)Nc1cc2cc(C3CCN(C4COC4)CC3)c(Cl)cc2cn1` (single isomer, unassigned) [Ex-9.4, N-(7-chloro-6-(1-(oxetan-3-yl)piperidin-4-yl)isoquinolin-3-yl)-2-methylcyclopropane-1-carboxamide], for which the IC50 is 5.75 nM.

As for `CC(C)(O)c1ccc(CC(=O)Nc2cc3cc(C4(C#N)CC45CC5)ccc3cn2)cc1` (single isomer, unassigned) [Ex-1.44, (R or S)-N-(6-(1-cyanospiro[2.2]pentan-1-yl)isoquinolin-3-yl)-2-(4-(2-hydroxypropan-2-yl)phenyl)acetamide], the IC50 was 22.9 nM.

Regarding `CC1C(C(=O)Nc2cc3cc(C4CCN(C5(C)COCC5O)CC4)c(Cl)cc3cn2)C12CCOCC2` (single isomer, unassigned) [Ex-10.8, N-(7-chloro-6-(1-(4-hydroxy-3-methyltetrahydrofuran-3-yl)piperidin-4-yl)isoquinolin-3-yl)-2-methyl-6-oxaspiro[2.5]octane-1-carboxamide], the IC50 is 145 nM.

For `CN1CCO[C@@H](C(=O)Nc2cc3cc(C4(C#N)CC45CC5)ccc3cn2)C1` (single isomer, unassigned) [Ex-1.31, (2R)-N-(6-((R or S)-1-cyanospiro[2.2]pentan-1-yl)isoquinolin-3-yl)-4-methylmorpholine-2-carboxamide], the IC50 is 11.7 nM.

For the molecule `N#CC1(c2ccc3cnc(NC(=O)C4CCN(CC(F)(F)F)C4)cc3c2)CC12CC2` (centres unmarked) [Ex-2.44], the IC50 is 39.8 nM.

As to `CN1CCC(C(=O)Nc2cc3cc(C4CCN(C5(C)COCC5O)CC4)c(Cl)cc3cn2)CC1` (single isomer, unassigned) [Ex-1.19, N-(7-chloro-6-(1-((3R,4R or 3S,4S)-4-hydroxy-3-methyltetrahydrofuran-3-yl)piperidin-4-yl)isoquinolin-3-yl)-1-methylpiperidine-4-carboxamide], the IC50 was 0.38 nM.

Consider `Cc1cc2cnc(NC(=O)C3CC3c3ccccn3)cc2cc1C1CCN(C2(C)COCC2O)CC1` (single isomer, unassigned) [Ex-4.78, N-(6-(1-(4-hydroxy-3-methyltetrahydrofuran-3-yl)piperidin-4-yl)-7-methylisoquinolin-3-yl)-2-(pyridin-2-yl)cyclopropane-1-carboxamide], for which the IC50 is 0.0813 nM.

For the molecule `CCC1C(C(=O)Nc2cc3cc(C4CCC(N5CC(F)C5)CC4)c(Cl)cc3cn2)C1c1cnn(C)c1` (single isomer, unassigned) [Ex-11.8, N-(7-chloro-6-(4-(3-fluoroazetidin-1-yl)cyclohexyl)isoquinolin-3-yl)-2-ethyl-3-(1-methyl-1H-pyrazol-4-yl)cyclopropane-1-carboxamide], the IC50 was 0.0813 nM.

As to `O=C(Nc1cc2cc(C3CCN(C4COC4)CC3)c(Cl)cc2cn1)C1CCCC1` [Ex-7.5, N-(7-chloro-6-(1-(oxetan-3-yl)piperidin-4-yl)isoquinolin-3-yl)cyclopentanecarboxamide], the IC50 is 5.5 nM.

In the case of `CC1CC1C(=O)Nc1cc2cc(C3CCN(C4COC4)CC3)c(Cl)cc2cn1` (single isomer, unassigned) [Ex-9.5, N-(7-chloro-6-(1-(oxetan-3-yl)piperidin-4-yl)isoquinolin-3-yl)-2-methylcyclopropane-1-carboxamide], the IC50 was 1.1 nM.

On to `CC1(C)CC(C(=O)Nc2cc3cc(C4CCN(C5(C)COCC5F)CC4)c(Cl)cc3cn2)CCO1` (single isomer, unassigned) [Ex-6.37, N-(7-chloro-6-(1-(4-fluoro-3-methyltetrahydrofuran-3-yl)piperidin-4-yl)isoquinolin-3-yl)-2,2-dimethyltetrahydro-2H-pyran-4-carboxamide], for which the IC50 was 0.0813 nM.

On to `Cc1cc2cnc(NC(=O)C3CC34CCOCC4)cc2cc1C1CCN(C2(C)COCC2O)CC1` (single isomer, unassigned) [Ex-15.16, N-(6-(1-(4-hydroxy-3-methyltetrahydrofuran-3-yl)piperidin-4-yl)-7-methylisoquinolin-3-yl)-6-oxaspiro[2.5]octane-1-carboxamide], for which the IC50 is 0.0813 nM.

Take `N#CC1(c2ccc3cnc(NC(=O)C4CC(OC(F)F)C4)cc3c2)CC12CC2` (single isomer, unassigned) [Ex-2.5]: the IC50 is 9.77 nM.

For `CC(C)(O)C1CC(C(=O)Nc2cc3cc(C4(C#N)CC45CC5)ccc3cn2)C1` (single isomer, unassigned) [Ex-1.26, (1R,3R or 1S,3S)-N-(6-((R or S)-1-cyanospiro[2.2]pentan-1-yl)isoquinolin-3-yl)-3-(2-hydroxypropan-2-yl)cyclobutane-1-carboxamide], the IC50 is 3.39 nM.

Turning to `CCC1C(C(=O)Nc2cc3cc(C4CC(C#N)C4)c(Cl)cc3cn2)C1c1cnn(C)c1` (centres unmarked) [Ex-9.18, N-(7-chloro-6-(3-cyanocyclobutyl)isoquinolin-3-yl)-2-ethyl-3-(1-methyl-1H-pyrazol-4-yl)cyclopropane-1-carboxamide], the IC50 is 22.4 nM.

Consider `Cn1ncc(C2CC2C(=O)Nc2cc3cc(C4CCN(C5(C)COCC5O)CC4)c(Cl)cc3cn2)n1` (racemic) [Ex-20.2, (1R,2R and 1S,2S)-N-(7-chloro-6-(1-(4-hydroxy-3-methyltetrahydrofuran-3-yl)piperidin-4-yl)isoquinolin-3-yl)-2-(2-methyl-2H-1,2,3-triazol-4-yl)cyclopropane-1-carboxamide], for which the IC50 was 0.0813 nM.

As to `Cn1cc(C(=O)Nc2cc3cc(C4CCN([C@]5(C)COC[C@@H]5O)CC4)c(Cl)cc3cn2)cn1` (single isomer, unassigned) [Ex-12.7, N-(7-chloro-6-(1-(4-hydroxy-3-methyltetrahydrofuran-3-yl)piperidin-4-yl)isoquinolin-3-yl)-1-methyl-1H-pyrazole-4-carboxamide], the IC50 was 21.9 nM.

`O=C(Nc1cc2cc(C3CCN(C4COC4)CC3)c(Cl)cc2cn1)C1CC12CCOCC2` (single isomer, unassigned) [Ex-9.8, N-(7-chloro-6-(1-(oxetan-3-yl)piperidin-4-yl)isoquinolin-3-yl)-6-oxaspiro[2.5]octane-1-carboxamide]: the IC50 was 19.1 nM.

For `N#CC1(c2ccc3cnc(NC(=O)C4C5Oc6cc(Cl)ncc6C54)cc3c2)CC12CC2` (single isomer, unassigned) [Ex-1.33, (1S,1aR,6bS or 1R,1aS,6bR)-4-chloro-N-(6-((R or S)-1-cyanospiro[2.2]pentan-1-yl)isoquinolin-3-yl)-1a,6b-dihydro-1H-cyclopropa[4,5]furo[3,2-c]pyridine-1-carboxamide], the IC50 is 28.2 nM.

(Values after patent US20240398784A1, “C-LINKED ISOQUINOLINE AMIDES AS LRRK2 INHIBITORS, PHARMACEUTICAL COMPOSITIONS, AND USES THEREOF” (Merck Sharp & Dohme LLC, priority 2021, published 2024).)
